Reference: patent US8802597B2, “Herbicidal pyrimidines” (E I du Pont de Nemours and Company, priority 2003, dated 2014)
Read-outs that look alike come from different tables or passages of the source.

How the values were obtained:
Type in all cases: in vivo
[1] = system: wheat (Triticum aestivum); assay: Test B pre/postemergence; settings: Triticum aestivum; for plant injury at 125 g/ha: 125 g ai/ha; for plant injury at 500 g/ha: 500 g ai/ha
Method in brief: (§1)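 Following sowing, compounds in a surfactant-bearing non-phytotoxic solvent were applied preemergence; emerged plants 2 to 18 cm high got postemergence treatment concurrently. Evaluation: 13 to 15 days later, greenhouse, 0–100 visual scale.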

[2] = system: barnyardgrass (Echinochloa crus-galli); assay: Test B pre/postemergence; settings: Echinochloa crus-galli; for pest or weed control at 125 g/ha: 125 g ai/ha; for pest or weed control at 500 g/ha: 500 g ai/ha
Method in brief: as §1

[3] = system: crabgrass (Digitaria sanguinalis); assay: Test B pre/postemergence; settings: Digitaria sanguinalis; for pest or weed control at 125 g/ha: 125 g ai/ha; for pest or weed control at 500 g/ha: 500 g ai/ha
Method in brief: as §1

corn (Zea mays) = assay: Test B pre/postemergence; settings: Zea mays
Method in brief: as §1

[4] = system: lambsquarters (Chenopodium album); assay: Test B pre/postemergence; settings: Chenopodium album; for pest or weed control at 125 g/ha: 125 g ai/ha; for pest or weed control at 500 g/ha: 500 g ai/ha
Method in brief: as §1

[5] = system: Surinam grass (Brachiaria decumbens); assay: Test B pre/postemergence; settings: Urochloa decumbens; for pest or weed control at 125 g/ha: 125 g ai/ha; for pest or weed control at 500 g/ha: 500 g ai/ha
Method in brief: as §1

[6] = system: velvetleaf (Abutilon theophrasti); assay: Test B pre/postemergence; settings: Abutilon theophrasti; for pest or weed control at 125 g/ha: 125 g ai/ha; for pest or weed control at 500 g/ha: 500 g ai/ha
Method in brief: as §1

[7] = system: giant foxtail (Setaria faberii); assay: Test B pre/postemergence; settings: Setaria faberi; for pest or weed control at 125 g/ha: 125 g ai/ha; for pest or weed control at 500 g/ha: 500 g ai/ha
Method in brief: as §1

[8] = system: morningglory (Ipomoea coccinea); assay: Test B pre/postemergence; settings: Ipomoea; for pest or weed control at 125 g/ha: 125 g ai/ha; for pest or weed control at 500 g/ha: 500 g ai/ha
Method in brief: as §1

[9] = system: pigweed (Amaranthus retroflexus); assay: Test B pre/postemergence; settings: Amaranthus retroflexus; for pest or weed control at 125 g/ha: 125 g ai/ha; for pest or weed control at 500 g/ha: 500 g ai/ha
Method in brief: as §1

[10] = system: cocklebur (Xanthium strumarium); assay: Test B pre/postemergence; settings: Xanthium strumarium; for pest or weed control at 125 g/ha: 125 g ai/ha; for pest or weed control at 500 g/ha: 500 g ai/ha
Method in brief: as §1

[11] = system: blackgrass (Alopecurus myosuroides); assay: Test B postemergence; settings: Alopecurus myosuroides, post-emergence
Method in brief: as §1

wild oat (Avena fatua) = assay: Test B postemergence; settings: Avena fatua, post-emergence
Method in brief: as §1

[12] = system: barnyardgrass (Echinochloa crus-galli); assay: Test B flooded paddy test; settings: Echinochloa crus-galli, Flood, 1000 g ai/ha; scale 0 (no effect) to 100 (complete control); read-out: Plant response rating, Barnyardgrass
Method in brief: (§2)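 Plants were grown to the 2-leaf stage before treatment, then kept in a greenhouse for 13 to 15 days. Injury was rated visually against untreated controls on a 0 to 100 scale, where 0 is no effect and 100 is complete control.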

rice (Oryza sativa) = assay: Test B flooded paddy test; settings: Oryza sativa, Flood, 1000 g ai/ha; scale 0 to 100; read-out: Plant response rating, Rice
Method in brief: as §2

[13] = system: umbrella sedge (Cyperus difformis); assay: Test B flooded paddy test; settings: Cyperus difformis, Flood, 1000 g ai/ha; scale 0 to 100; read-out: Plant response rating, Sedge, Umbrella
Method in brief: as §2

[14] = system: duck salad (Heteranthera limosa); assay: Test B flooded paddy test; settings: Heteranthera limosa, Flood, 1000 g ai/ha; scale 0 to 100; read-out: Plant response rating, Ducksalad
Method in brief: as §2

[15] = pre-emergence, Preemergence, scale 0 to 100 (0 no effect, 100 complete control), read-out: Plant response rating, Wheat

`CCOC(=O)c1nc(C2CC2)nc(NN)c1Br` [Compound 42] showed a plant injury at 125 g/ha ([1]; post-emergence, Postemergence, scale 0 to 100 (0 no effect, 100 complete control), read-out: Wheat plant response rating) of 50%, a plant injury at 500 g/ha ([1]; post-emergence, Postemergence, scale 0 to 100, read-out: Plant response rating, Wheat) of 50% and a plant injury at 125 g/ha [1, 15] of 10%. The plant injury at 500 g/ha [1, 15] was 10%, the pest or weed control at 125 g/ha ([2]; post-emergence, Postemergence, scale 0 to 100 (0 no effect, 100 complete control), read-out: Barnyardgrass plant response rating) was 10% and the pest or weed control at 500 g/ha ([2]; post-emergence, Postemergence, scale 0 to 100, read-out: Plant response rating, Barnyardgrass) was 30%. It also gave a pest or weed control at 125 g/ha ([2]; pre-emergence, Preemergence, scale 0 to 100 (0 no effect, 100 complete control), read-out: Plant response rating, Barnyardgrass) of 0%, a pest or weed control at 500 g/ha ([2]; pre-emergence, Preemergence, scale 0 to 100 (0 no effect, 100 complete control), read-out: Barnyardgrass plant response rating) of 0% and a pest or weed control at 125 g/ha ([3]; post-emergence, Postemergence, scale 0 to 100 (0 no effect, 100 complete control), read-out: Crabgrass plant response rating) of 0%. It also gave a pest or weed control at 500 g/ha ([3]; post-emergence, Postemergence, scale 0 to 100, read-out: Plant response rating, Crabgrass) of 30%, a pest or weed control at 125 g/ha ([3]; pre-emergence, Preemergence, scale 0 to 100 (0 no effect, 100 complete control), read-out: Plant response rating, Crabgrass) of 0% and a pest or weed control at 500 g/ha ([3]; pre-emergence, Preemergence, scale 0 to 100 (0 no effect, 100 complete control), read-out: Crabgrass plant response rating) of 20%. The plant injury at 125 g/ha (corn (Zea mays); post-emergence, Postemergence, 125 g ai/ha, scale 0 to 100 (0 no effect, 100 complete control), read-out: Corn plant response rating) was 0%, the Corn plant response rating (crop injury, 0 = no effect, 100 = complete kill) at 500 g/ha (corn (Zea mays); post-emergence, Postemergence, 500 g ai/ha, scale 0 to 100) was 0% and the Corn plant response rating (crop injury, 0 = no effect, 100 = complete kill) at 125 g/ha (corn (Zea mays); pre-emergence, Preemergence, 125 g ai/ha, scale 0 to 100 (0 no effect, 100 complete control)) was 0%. The plant injury at 500 g/ha (corn (Zea mays); pre-emergence, Preemergence, 500 g ai/ha, scale 0 to 100 (0 no effect, 100 complete control), read-out: Corn plant response rating) was 0%, the pest or weed control at 125 g/ha ([4]; post-emergence, Postemergence, scale 0 to 100 (0 no effect, 100 complete control), read-out: Lambsquarters plant response rating) was 80% and the pest or weed control at 500 g/ha ([4]; post-emergence, Postemergence, scale 0 to 100, read-out: Plant response rating, Lambsquarters) was 90%. The pest or weed control at 125 g/ha ([4]; pre-emergence, Preemergence, scale 0 to 100 (0 no effect, 100 complete control), read-out: Plant response rating, Lambsquarters) was 40%, the pest or weed control at 500 g/ha ([4]; pre-emergence, Preemergence, scale 0 to 100 (0 no effect, 100 complete control), read-out: Lambsquarters plant response rating) was 90% and the pest or weed control at 125 g/ha ([5]; post-emergence, Postemergence, scale 0 to 100 (0 no effect, 100 complete control), read-out: Surinam Grass plant response rating) was 0%. It also gave a pest or weed control at 500 g/ha ([5]; post-emergence, Postemergence, scale 0 to 100, read-out: Plant response rating, Surinam Grass) of 10%, a pest or weed control at 125 g/ha ([5]; pre-emergence, Preemergence, scale 0 to 100 (0 no effect, 100 complete control), read-out: Plant response rating, Surinam Grass) of 0% and a pest or weed control at 500 g/ha ([5]; pre-emergence, Preemergence, scale 0 to 100 (0 no effect, 100 complete control), read-out: Surinam Grass plant response rating) of 20%. The pest or weed control at 125 g/ha ([6]; post-emergence, Postemergence, scale 0 to 100 (0 no effect, 100 complete control), read-out: Velvetleaf plant response rating) was 50%, the pest or weed control at 500 g/ha ([6]; post-emergence, Postemergence, scale 0 to 100, read-out: Plant response rating, Velvetleaf) was 80% and the pest or weed control at 125 g/ha ([6]; pre-emergence, Preemergence, scale 0 to 100 (0 no effect, 100 complete control), read-out: Plant response rating, Velvetleaf) was 10%. It also gave a pest or weed control at 500 g/ha ([6]; pre-emergence, Preemergence, scale 0 to 100 (0 no effect, 100 complete control), read-out: Velvetleaf plant response rating) of 70%, a pest or weed control at 125 g/ha ([7]; post-emergence, Postemergence, scale 0 to 100 (0 no effect, 100 complete control), read-out: Foxtail, Giant plant response rating) of 0% and a pest or weed control at 500 g/ha ([7]; post-emergence, Postemergence, scale 0 to 100, read-out: Plant response rating, Foxtail, Giant) of 0%. It also gave a pest or weed control at 125 g/ha ([7]; pre-emergence, Preemergence, scale 0 to 100 (0 no effect, 100 complete control), read-out: Plant response rating, Foxtail, Giant) of 0%, a pest or weed control at 500 g/ha ([7]; pre-emergence, Preemergence, scale 0 to 100 (0 no effect, 100 complete control), read-out: Foxtail, Giant plant response rating) of 0% and a pest or weed control at 125 g/ha ([8]; post-emergence, Postemergence, scale 0 to 100 (0 no effect, 100 complete control), read-out: Morningglory plant response rating) of 80%. For the same compound, the pest or weed control at 500 g/ha ([8]; post-emergence, Postemergence, scale 0 to 100, read-out: Plant response rating, Morningglory) was 90%, the pest or weed control at 125 g/ha ([8]; pre-emergence, Preemergence, scale 0 to 100 (0 no effect, 100 complete control), read-out: Plant response rating, Morningglory) was 20% and the pest or weed control at 500 g/ha ([8]; pre-emergence, Preemergence, scale 0 to 100 (0 no effect, 100 complete control), read-out: Morningglory plant response rating) was 80%. For the same compound, the pest or weed control at 125 g/ha ([9]; post-emergence, Postemergence, scale 0 to 100 (0 no effect, 100 complete control), read-out: Pigweed plant response rating) was 80%, the pest or weed control at 500 g/ha ([9]; post-emergence, Postemergence, scale 0 to 100, read-out: Plant response rating, Pigweed) was 90% and the pest or weed control at 125 g/ha ([9]; pre-emergence, Preemergence, scale 0 to 100 (0 no effect, 100 complete control), read-out: Plant response rating, Pigweed) was 50%. For the same compound, the pest or weed control at 500 g/ha ([9]; pre-emergence, Preemergence, scale 0 to 100 (0 no effect, 100 complete control), read-out: Pigweed plant response rating) was 90%, the pest or weed control at 125 g/ha ([10]; post-emergence, Postemergence, scale 0 to 100 (0 no effect, 100 complete control), read-out: Cocklebur plant response rating) was 80% and the pest or weed control at 500 g/ha ([10]; post-emergence, Postemergence, scale 0 to 100, read-out: Plant response rating, Cocklebur) was 90%. It also gave a pest or weed control at 125 g/ha ([10]; pre-emergence, Preemergence, scale 0 to 100 (0 no effect, 100 complete control), read-out: Plant response rating, Cocklebur) of 40%, a pest or weed control at 500 g/ha ([10]; pre-emergence, Preemergence, scale 0 to 100 (0 no effect, 100 complete control), read-out: Cocklebur plant response rating) of 70% and a pest or weed control at 125 g/ha ([11]; 125 g ai/ha, scale 0 to 100 (0 no effect, 100 complete control), read-out: Blackgrass plant response rating) of 30%. The pest or weed control at 500 g/ha ([11]; 500 g ai/ha, scale 0 to 100, read-out: Plant response rating, Blackgrass) was 60%, the pest or weed control at 125 g/ha (wild oat (Avena fatua); 125 g ai/ha, scale 0 to 100 (0 no effect, 100 complete control), read-out: Oat, Wild plant response rating) was 0% and the pest or weed control at 500 g/ha (wild oat (Avena fatua); 500 g ai/ha, scale 0 to 100, read-out: Plant response rating, Oat, Wild) was 0%. The pest or weed control at 1000 g/ha [12] was 0%, the plant injury at 1000 g/ha (rice (Oryza sativa)) was 0% and the pest or weed control at 1000 g/ha [13] was 0%. For the same compound, the pest or weed control at 1000 g/ha [14] was 0%.
